For data set [1], the system named is Bacillus subtilis DSM 402. The data set is described as follows: microbe, parasite or virus in culture. The settings on record: for Minimum inhibitory concentration, B. subtilis: DSM 402, 16 h. The procedure: (§1) The antibacterial activity of the peptides was first assessed by determining their minimum inhibitory concentration (MIC) value. This MIC value represents the lowest concentration of the antibacterial agent that is needed to hinder the growth of the bacteria. For this, six standard bacterial strains – among them three Gram-negative and three Gram-positive pathogens – were incubated with increasing concentrations of the antibacterial peptide (Table 2). In order to put the activities of these RW-based synAMPs and their organometallic conjugates into perspective, two reference peptides were included, i.e., membrane-targeting gramicidin S derivative GS(K2Y2) and cell wall precursor lipid II-targeting vancomycin.
(§2) The minimal inhibitory concentrations (MIC) were tested against Escherichia coli DSM 30083, Acinetobacter baumannii DSM 30007, Pseudomonas aeruginosa DSM 50071, Bacillus subtilis DSM 402, Staphylococcus aureus DSM 20231 (type strain), and Staphylococcus aureus ATCC 43300 (MRSA) in a microtiter plate assay according to CLSI guidelines. E. coli, A. baumannii, S. aureus, and B. subtilis were grown in Mueller–Hinton (MH) broth, P. aeruginosa in cation adjusted Mueller–Hinton II. […] Serial dilution in culture media was carried out automatically with the Tecan Freedom Evo 75 liquid handling workstation (Tecan, Männedorf, Switzerland) from 512 to 0.5 µg/mL. Peptide dilutions were inoculated with 10^5 bacteria/mL taken from late exponential cultures grown in the same media in a total volume of 200 µL per well. Cells were incubated for 16 h at 37 °C. The lowest peptide concentration inhibiting visible bacterial growth was taken as MIC.
(§3) Cells were grown in DMEM until late exponential phase before using them for inoculation. Peptide concentrations, inoculation and incubation were performed as described above.

Data set [2] has as its system Staphylococcus aureus DSM 20231 (type strain). The data set is described as follows: microbe, parasite or virus in culture. The procedure: as §1, §2, §3
The subject of data set [3] is Staphylococcus aureus ATCC 43300 (MRSA). The data set is described as follows: microbe, parasite or virus in culture. The procedure: as §1, §2, §3
For data set [4], the system named is Pseudomonas aeruginosa DSM 50071. The data set is described as follows: MIC, microtiter plate assay (CLSI). The settings on record: for Minimum inhibitory concentration, P. aeruginosa: title: in the cell culture medium, CLSI guidelines, µM calculated with one TFA counterion per basic residue. The class given is cell-based. The protocol:
as §1, §2, §3

Data set [5] concerns Escherichia coli DSM 30083. The protocol:
as §1, §2, §3

Data set [6] concerns Acinetobacter baumannii DSM 30007. The data set is described as follows: microbe, parasite or virus in culture. The protocol:
as §1, §2, §3

Data set [7] has as its system human red blood cells (hRBCs). The data set is described as follows: Hemolytic activity. The class given is cell-based. The procedure: (§4) Although an HC50 value was reported for (RW)3 [53], neither the D-amino acid peptide nor the organometallic derivatized peptides were studied with respect to their hemolytic capacity. Therefore, all peptides were tested in parallel to obtain HC50 values under identical conditions.
(§5) After drawing whole blood into anticoagulant containing tubes (BD Vacutainer®, K2 EDTA 3.6 mg, Ref 368841, Lot 1248213), its fractionation was executed with one volume whole blood added to nine volumes sterile 0.9% NaCl and centrifugation (800g, 10 min, 4 °C). Subsequently, the lowest fraction containing all hRBCs was washed twice with nine volumes 1 × PBS (PAA), triturating carefully. The concentrated hRBCs were re-suspended with 1 × PBS to an erythrocyte concentration of 5% (v/v). Wells of a 96-well plate were filled with 100 µL of the appropriate peptide solutions: The peptides were dissolved in 1 × PBS and DMSO (5% for (RW)3 and 50% for RcCO-W(RW)2). These were mixed with 100 µL of the 5% hRBCs solution and incubated under agitation on a flat shaker (170 rpm, 30 min, 37 °C). […] The release of hemoglobin was monitored by measuring the absorbance of the supernatant at 550 nm using an automated 96-well plate reader. […] Toxicity on human cancer cell lines was determined according to previously described procedures.

Data set [8] has as its system human breast adenocarcinoma (MCF7). The class given is cell-based. The protocol: (§6) Finally, to determine whether the peptides are selective for bacterial cells, we tested the toxicity against mammalian cells using three malignant cell lines: human liver carcinoma (HepG2), human colon adenocarcinoma grade II (HT29) and human breast adenocarcinoma (MCF7) cell lines (Table 5).
(§7) After drawing whole blood into anticoagulant containing tubes (BD Vacutainer®, K2 EDTA 3.6 mg, Ref 368841, Lot 1248213), its fractionation was executed with one volume whole blood added to nine volumes sterile 0.9% NaCl and centrifugation (800g, 10 min, 4 °C). Subsequently, the lowest fraction containing all hRBCs was washed twice with nine volumes 1 × PBS (PAA), triturating carefully. The concentrated hRBCs were re-suspended with 1 × PBS to an erythrocyte concentration of 5% (v/v). Wells of a 96-well plate were filled with 100 µL of the appropriate peptide solutions: The peptides were dissolved in 1 × PBS and DMSO (5% for (RW)3 and 50% for RcCO-W(RW)2). These were mixed with 100 µL of the 5% hRBCs solution and incubated under agitation on a flat shaker (170 rpm, 30 min, 37 °C). After sedimenting all probes under centrifugation (800g, 10 min, 4 °C), all supernatants were transferred into a clean 96-well plate. The release of hemoglobin was monitored by measuring the absorbance of the supernatant at 550 nm using an automated 96-well plate reader. Controls for 0 and 100% hemolysis consisted of hRBC 5% (v/v) suspended in PBS containing DMSO in appropriate concentrations and 1% Triton X-100, respectively. Toxicity on human cancer cell lines was determined according to previously described procedures.

Data set [9] concerns human colon adenocarcinoma grade II (HT29). The format is cell-based. The procedure:
as §6, §7

The subject of data set [10] is human liver carcinoma (HepG2). The class given is cell-based. The procedure:
as §6, §7

For data set [11], the system named is three human cancer cell lines (HepG2, HT29, MCF7).
Protocol: Toxicity on human cancer cell lines was determined according to previously described procedures [67–68].
Data set [12] relates to human red blood cells (hRBCs). Particulars: cited from earlier work.
The next data set deals with S. aureus (133). The data set is described as follows: MIC in half-concentrated MH broth, polypropylene plates. The format is cell-based. Particulars: 133, 18 h. The protocol:
(§8) Determination of MIC values was performed in 96-well polypropylene microtiter plates (Life Technologies) in order to reduce the AMP binding. A series of 2-fold dilutions of the peptides was prepared directly in the plate in half-concentrated MH broth. The tested strains were grown to an optical density (600 nm) of 0.5 in half-concentrated MH broth and diluted 1:10^5 using the same medium. Then, 100 µL of this suspension was mixed with 100 µL of the peptide solution already prepared in the wells of the microtiter plate as mentioned earlier. […] The results given are mean values of three or more independent determinations.

The next data set concerns M. luteus. Described as above. The settings on record: 18 h. The format is cell-based. The protocol: as §8
The nature of another data set: Hemolytic activity. The class given is cell-based, human. The settings on record: human, at 263 µg/mL (192 µM); 50% DMSO/PBS; relative to Triton X-100; read-out: hemolysis of hRBCs. The protocol:
as §4, §5

Where [13] appears, read: value outside brackets, title: in the cell culture medium.
The mark [14] stands for this setting: title: in the cell culture medium, CLSI guidelines, µM calculated with one TFA counterion per basic residue.

Values after ≈ are worked out from the molar mass of the structure shown. Read-outs that look alike come from different tables or passages of the source. Square brackets hold non-standard residues; d marks the D form. Peptide text beside a SMILES is read from it. * marks the point of attachment. X1 = O=C([C]12[CH]3[CH]4[CH]5[CH]1[Ru]45321678[CH]2[CH]1[CH]6[CH]7[CH]28)*

Turning to `CC(C)C[C@@H]1NC(=O)[C@H](CCCCN)NC(=O)[C@H](C(C)C)NC(=O)[C@@H]2CCCN2C(=O)[C@@H](Cc2ccc(O)cc2)NC(=O)[C@H](CC(C)C)NC(=O)[C@H](CCCCN)NC(=O)[C@H](C(C)C)NC(=O)[C@@H]2CCCN2C(=O)[C@@H](Cc2ccc(O)cc2)NC1=O` [GS(K2Y2), cyclo([Pro-Val-Lys-Leu-D-Tyr]2), reference compound] (cyclo(PVKL[dY]PVKL[dY])), the “Minimum inhibitory concentration, B. subtilis” value in [1] is reported as 1.4 µM (≈ 1.68 µg/mL). Further, the “Minimum inhibitory concentration, S. aureus” value in [2] (DSM 20231, 16 h) was 1.4 µM (≈ 1.68 µg/mL). Also, in [3] (ATCC 43300, 16 h), the “Minimum inhibitory concentration, S. aureus (MRSA)” value worked out at 2.8 µM (≈ 3.36 µg/mL). Moreover, the “Minimum inhibitory concentration, P. aeruginosa” value in data set [4] is listed as “n.a. (‘n.a.’ means ‘not active’ (MIC > 100 μM))”.
On to Ac-RWRWRW-NH2 [Ac(RW)3, Ac-RWRWRW-NH2], for which the “Minimum inhibitory concentration, B. subtilis” value in data set [1] is recorded as 45 µM. Also, in data set [5] (DSM 30083, 16 h), the “Minimum inhibitory concentration, E. coli” value stood at 45 µM.
As to `N=C(N)NCCCC(N)C(=O)NC(Cc1c[nH]c2ccccc12)C(=O)NC(CCCNC(=N)N)C(=O)NC(Cc1c[nH]c2ccccc12)C(=O)NC(CCCNC(=N)N)C(=O)NC(Cc1c[nH]c2ccccc12)C(N)=O` (stereo not drawn) [(RW)3] (H-RWRWRW-NH2; configuration not given here), the “Minimum inhibitory concentration, B. subtilis” value in data set [1] amounted to 1.3 µM (≈ 1.36 µg/mL). Further, the “Minimum inhibitory concentration, S. aureus” value in data set [2] (DSM 20231, 16 h) was 11 (11) µM. The “Minimum inhibitory concentration, A. baumannii” value in data set [6] (DSM 30007, 16 h) stood at 21 µM (≈ 21.9 µg/mL). Moreover, the “concentration up to which no significant destruction of erythrocytes” value in data set [7] is given as “up to 500 µg/mL”. Further, the IC50 (commonly the concentration needed to halve the response being measured) is 159 ± 7 µM in [8], 132 ± 12 µM in data set [9], 143 ± 21 µM in data set [10] and ~140 µM in data set [11]. Besides, in data set [5] (DSM 30083, 16 h), the “Minimum inhibitory concentration, E. coli” value came out at 21 µM (≈ 21.9 µg/mL). For the same compound, the “concentration of 50% hemolysis” value in data set [12] was ~ 250 µM. Besides, the “MIC, S. aureus (133)” value against S. aureus (133) was determined as 2.1 ± 0.7 µg/mL (≈ 2.01 µM). Moreover, the “MIC, M. luteus” value in the data set with M. luteus is 0.6 ± 0.0 µg/mL (≈ 0.575 µM).
Take `CN[C@H](CC(C)C)C(=O)N[C@H]1C(=O)N[C@@H](CC(N)=O)C(=O)N[C@H]2C(=O)N[C@H]3C(=O)N[C@H](C(=O)N[C@H](C(=O)O)c4cc(O)cc(O)c4-c4cc3ccc4O)[C@H](O)c3ccc(c(Cl)c3)Oc3cc2cc(c3O[C@@H]2O[C@H](CO)[C@@H](O)[C@H](O)[C@H]2O[C@H]2C[C@](C)(N)[C@H](O)[C@H](C)O2)Oc2ccc(cc2Cl)[C@H]1O` [vancomycin, reference compound]: the MIC in [1] (Bacillus subtilis, DSM402, read-out: Minimum inhibitory concentration, B. subtilis) was 0.3 µM (≈ 0.435 µg/mL); in [2] (Staphylococcus aureus, DSM20231, read-out: Minimum inhibitory concentration, S. aureus), 0.3 µM (≈ 0.435 µg/mL); in data set [3] (Staphylococcus aureus, ATCC43300|MRSA, read-out: Minimum inhibitory concentration, S. aureus (MRSA)) it was 0.6 µM (≈ 0.87 µg/mL); in data set [6] (Acinetobacter baumannii, DSM30007, read-out: Minimum inhibitory concentration, A. baumannii), 38 µM (≈ 55.1 µg/mL); in [4] (Pseudomonas aeruginosa, DSM50071, read-out: Minimum inhibitory concentration, P. aeruginosa) it was > 100 µM.
H-KWKWKW-NH2 [(KW)3]: the “Minimum inhibitory concentration, S. aureus” value in [2] (setting [13]) is listed as “n.a. (‘n.a.’ means ‘not active’ (MIC > 100 μM))”. Further, the “Minimum inhibitory concentration, S. aureus (MRSA)” value in [3] (setting [13]) is listed as “n.a. (‘n.a.’ means ‘not active’ (MIC > 100 μM))”. In addition, in [6] (setting [14]), the “Minimum inhibitory concentration, A. baumannii” value is reported as “n.a. (‘n.a.’ means ‘not active’ (MIC > 100 μM))”. The “Minimum inhibitory concentration, E. coli” value in [5] (setting [14]) is recorded as “n.a. (‘n.a.’ means ‘not active’ (MIC > 100 μM))”. Besides, in [4], the “Minimum inhibitory concentration, P. aeruginosa” value is on record as “n.a. (‘n.a.’ means ‘not active’ (MIC > 100 μM))”.
In the case of FcCO-RWRWRW-NH2 [FcCO-(RW)3], the “Minimum inhibitory concentration, E. coli” value in [5] (setting [14]) is listed as 20 µM.
For `N=C(N)NCCC[C@H](NC(=O)[C@H](Cc1c[nH]c2ccccc12)NC(=O)[C@H](CCCNC(=N)N)NC(=O)[C@H](Cc1c[nH]c2ccccc12)NC(=O)[C]12[CH]3[CH]4[CH]5[CH]1[Ru]45321678[CH]2[CH]1[CH]6[CH]7[CH]28)C(=O)N[C@@H](Cc1c[nH]c2ccccc12)C(N)=O` (stereo partly drawn) [RcCO-W(RW)2] (X1-WRWRW-NH2), the hemolysis at 30 min, 192 µM in the data set “Hemolytic activity” amounted to 64%.

These data come from paper PMC3511009, “Modulating the activity of short arginine-tryptophan containing antibacterial peptides with N-terminal metallocenoyl groups” (Beilstein Journal of Organic Chemistry, 2012).
